Laboratory results reported in US10160867B2, “Benzoxaborole-containing coating resistant to cellulose-supportable fungus” (THE PENN STATE RESEARCH FOUNDATION, priority 2015, dated 2018).
Converted amounts (≈) assume the structure as drawn.

Assays:
Alternaria alternata = experiment: Fungus resistance test after painting over fungal growth (defacement rating); format: cell-based; conditions: painted over fungal growth
Source text: (§1) In this series of experiments, fungal growth was allowed to cover a painted surface (surface containing 2 coats of the unaltered paint) to a defacement rating of 3-5, forming a ‘contaminated surface’. […] The paint application was extended approximately 1-2 cm beyond the edge of the disc onto the NSA medium. Each formulation used a separate brush to avoid cross contamination. The re-painted discs were placed back into the humid environment with elevated temperature to encourage fungal growth.
(§2) This test was used to evaluate the ability of paint films containing antifungal additives to prevent the re-emergence of fungal growth after painting over existing growth.
(§3) Olympic® Home interior flat latex paint (PPG Industries, Pittsburgh, Pa.) and Valspar® QuikHide White flat interior paint (Valspar Corporation, Minneapolis, Minn.) were used for the experiments in this study unless specified. Stock solutions of the antifungal additives of interest were prepared in reagent grade dimethyl sulfoxide (DMSO; Alfa Aesar, Ward Hill, Mass.). Additives were spiked (by adding appropriate amounts of the antifungal stock solutions) into the liquid paint at specified concentrations. Samples of additive-spiked paint were vigorously mixed with a vortex mixer for at least one minute to insure uniform dispersion of the additive in the paint. […] Studies that used other brands of paint followed the same protocol as described for those using the Olympic® Home interior flat latex paint.
(§4) Test surfaces were prepared in triplicate. In most cases, the tested conditions were repeated on a different date, again in triplicate. […] Two coats of paint were applied with a polyester brush to completely cover both faces of the filter paper disc, allowing at least four hours drying time between coats.
(§5) Nutrient-Salts Agar (NSA) media was prepared according to ASTM method G21-13 in 100×15 mm sterile polystyrene petri dishes (VWR® Radnor, Pa.) with a solidified agar layer from 3 to 6 mm (⅛ to ¼ in.) in depth. The agar was allowed to solidify for at least 24 hours before being used. The painted test filter paper discs were placed in the center of the agar plates in a biosafety hood while wearing clean nitrile gloves.
(§6) The paint coatings were evaluated against three representative fungi: Stachybotrys chartarum, Penicillium chrysogenum, and Alternaria alternata. […] Fungal isolates of Alternaria alternata and Penicillium chrysogenum were obtained from the Plant Pathology and Environmental Microbiology Department at Penn State University.
(§7) A spore suspension of each of these fungi was prepared by pouring a 20-mL portion of autoclaved deionized water containing 0.01% Tween® 20 onto a subculture of each fungal species. Spores were counted with the use of a hemocytometer (Hausser Scientific, Horsham, Pa.) under a microscope. Spore suspensions of Stachybotrys chartarum and Penicillium chrysogenum were diluted to 1×10^6 spores/mL with autoclaved deionized water. Spore suspensions of Alternaria alternata were used “as is” in the range of 200,000 to 400,000 spores/mL.
(§8) Painted test surfaces were inoculated with a spray bottle or with a cotton-tipped applicator. To inoculate the sample with a spray bottle, the spore suspension was sprayed twice on the painted test discs with a spray bottle that delivered approximately 0.14 g of fluid per spray. To inoculate the sample with a cotton-tipped applicator, an autoclaved cotton-tipped applicator was submerged in approximately 400 μL of the inoculum solution and applied evenly over the surface of the painted test surface twice.

Penicillium chrysogenum = experiment: as above; format: cell-based; conditions: painted over fungal growth, +200 μg/mL in Valspar QuikHide paint
Source text: as §1, §2, §3, §4, §5, §6, §7, §8

Stachybotrys chartarum = experiment: as above; format: cell-based; conditions: painted over fungal growth
Source text: as §1, §2, §3, §4, §5, §6, §7, §8

Aureobasidium pullulans = experiment: 3 day MIC, broth microdilution in 25% PDB; format: cell-based; conditions: 72 h
Summary of the method: (§9)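 Agents are diluted from DMSO stocks, giving a final DMSO level of about 0.5-2% v/v. Spore inocula are freshly prepared, hemocytometer-counted and set to 0.4-1×10^5 spores/mL final. Sealed plates sit at about 25° C, and growth is followed at 48 and 72 hours.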

Fusarium oxysparum ST-33 = experiment: 3 day MIC, broth microdilution in 25% PDB; format: cell-based; conditions: ST33, 72 h
Summary of the method: as §9

Aspergillus niger = experiment: 3 day MIC, broth microdilution in 25% PDB; format: cell-based; conditions: 72 h
Summary of the method: as §9

Rhizopus spp. = experiment: 3 day MIC, broth microdilution in 25% PDB; format: cell-based; conditions: 72 h
Summary of the method: as §9

Aspergillus flavus = experiment: 3 day MIC, broth microdilution in 25% PDB; format: cell-based; conditions: 72 h
Summary of the method: as §9

Mucor spp. = experiment: 3 day MIC, broth microdilution in 25% PDB; format: cell-based; conditions: 72 h
Summary of the method: as §9

[1] = commercially available fungicidal agents; cited from earlier work
[2] = tested on: Cladosporium cladosporioides; experiment: 3 day MIC, broth microdilution in 25% PDB; format: cell-based; conditions: 72 h
Summary of the method: as §9

[3] = +100 μg/mL in Olympic Home paint, 7 days
[4] = +100 μg/mL in Olympic Home paint, 14 days
[5] = +100 μg/mL in Olympic Home paint, 21 days
[6] = +200 μg/mL in Olympic Home paint, 7 days
[7] = +200 μg/mL in Olympic Home paint, 14 days
[8] = +200 μg/mL in Olympic Home paint, 21 days

O=C1C2CC=CCC2C(=O)N1SC(Cl)(Cl)Cl (stereo not shown) [Captan]
Average defacement rating ± standard deviation (Alternaria alternata; [3]): 3.6 ± 3.9 (9) | Average defacement rating ± standard deviation (Alternaria alternata; [4]): 2.5 ± 4.0 (9) | Average defacement rating ± standard deviation (Alternaria alternata; [5]): 2.4 ± 3.8 (9) | Average defacement rating ± standard deviation (Penicillium chrysogenum; 7 days): 0.0 ± 0.0 (9) | Average defacement rating ± standard deviation (Penicillium chrysogenum; 14 days): 0.0 ± 0.0 (9) | Average defacement rating ± standard deviation (Penicillium chrysogenum; 21 days): 0.0 ± 0.0 (9) | Average defacement rating ± standard deviation (Stachybotrys chartarum; [3]): 0.0 ± 0.0 (6) | Average defacement rating ± standard deviation (Stachybotrys chartarum; [4]): 0.0 ± 0.0 (6) | Average defacement rating ± standard deviation (Stachybotrys chartarum; [5]): 0.0 ± 0.0 (6) | MIC (Aureobasidium pullulans): 0.8 µg/mL (≈ 2.66 µM) | MIC (Fusarium oxysparum ST-33): 2 µg/mL (≈ 6.65 µM) | MIC (Aspergillus niger): 16 µg/mL (≈ 53.2 µM) | MIC (Rhizopus spp.): 12.5 µg/mL (≈ 41.6 µM) | MIC (Aspergillus flavus): 25 µg/mL (≈ 83.2 µM) | MIC (Mucor spp.): 3.1 µg/mL (≈ 10.3 µM) | Solubility in water [1]: 3.3 mg/L (≈ 11 µM)

N#Cc1c(Cl)c(Cl)c(Cl)c(C#N)c1Cl [Chlorothalonil, chlorothalonil]
Average defacement rating ± standard deviation (Alternaria alternata; +1000 μg/mL in Olympic Home paint, 7 days): 0.5 ± 1.4 (9) | Average defacement rating ± standard deviation (Alternaria alternata; +1000 μg/mL in Olympic Home paint, 14 days): 0.2 ± 0.5 (9) | Average defacement rating ± standard deviation (Alternaria alternata; +1000 μg/mL in Olympic Home paint, 21 days): 0.1 ± 0.3 (9) | Average defacement rating ± standard deviation (Penicillium chrysogenum; 7 days): 0.0 ± 0.0 (9) | Average defacement rating ± standard deviation (Penicillium chrysogenum; 14 days): 0.0 ± 0.0 (9) | Average defacement rating ± standard deviation (Penicillium chrysogenum; 21 days): 0.0 ± 0.0 (9) | Average defacement rating ± standard deviation (Stachybotrys chartarum; [3]): 2.2 ± 2.1 (9) | Average defacement rating ± standard deviation (Stachybotrys chartarum; [4]): 2.0 ± 1.7 (9) | Average defacement rating ± standard deviation (Stachybotrys chartarum; [5]): 2.0 ± 1.7 (9) | MIC (Aspergillus niger): 0.4 µg/mL (≈ 1.5 µM) | MIC (Rhizopus spp.): 0.8 µg/mL (≈ 3.01 µM) | MIC (Aspergillus flavus): 0.2 µg/mL (≈ 0.752 µM) | MIC (Mucor spp.): 0.8 µg/mL (≈ 3.01 µM) | Solubility in water [1]: <100 mg/L

OB1OCc2cc(Cl)ccc21 [Compound B8, 5-chloro-1,3-dihydro-2,1-benzoxaborol-1-ol]
Average defacement rating ± standard deviation (Alternaria alternata; [4]): 3.4 ± 2.9 (9) | Average defacement rating ± standard deviation (Alternaria alternata; [5]): 3.0 ± 2.8 (9) | Average defacement rating ± standard deviation (Alternaria alternata; [6]): 9.3 ± 1.2 (3) | Average defacement rating ± standard deviation (Alternaria alternata; [7]): 7.3 ± 2.9 (3) | Average defacement rating ± standard deviation (Alternaria alternata; [8]): 3.0 ± 0.9 (3) | Average defacement rating ± standard deviation (Penicillium chrysogenum; 7 days): 2.3 ± 0.6 (9) | Average defacement rating ± standard deviation (Penicillium chrysogenum; 14 days): 0.0 ± 0.0 (9) | Average defacement rating ± standard deviation (Penicillium chrysogenum; 21 days): 0.0 ± 0.0 (9) | Average defacement rating ± standard deviation (Stachybotrys chartarum; [3]): 7.0 ± 1.9 (9) | Average defacement rating ± standard deviation (Stachybotrys chartarum; [4]): 6.4 ± 2.6 (9) | MIC [2]: 0.1 µg/mL (≈ 0.594 µM) | MIC (Aureobasidium pullulans): 0.125 µg/mL (≈ 0.742 µM) | MIC (Fusarium oxysparum ST-33): 0.25 µg/mL (≈ 1.48 µM) | MIC (Aspergillus niger): 0.25 µg/mL (≈ 1.48 µM) | MIC (Rhizopus spp.): 4 µg/mL (≈ 23.8 µM) | MIC (Aspergillus flavus): 1 µg/mL (≈ 5.94 µM) | MIC (Mucor spp.): 0.5 µg/mL (≈ 2.97 µM)

OB1OCc2cc(F)ccc21 [Compound B9, 5-Fluoro-1,3-dihydro-2,1-benzoxaborol-1-ol]
Average defacement rating ± standard deviation (Alternaria alternata; [4]): 5.1 ± 2.1 (12) | Average defacement rating ± standard deviation (Alternaria alternata; [5]): 4.6 ± 2.2 (12) | Average defacement rating ± standard deviation (Alternaria alternata; [6]): 9.7 ± 0.6 (3) | Average defacement rating ± standard deviation (Alternaria alternata; [7]): 7.0 ± 4.4 (3) | Average defacement rating ± standard deviation (Alternaria alternata; [8]): 6.3 ± 5.5 (3) | Average defacement rating ± standard deviation (Penicillium chrysogenum; 7 days): 8.7 ± 1.0 (9) | Average defacement rating ± standard deviation (Penicillium chrysogenum; 14 days): 2.6 ± 3.1 (9) | Average defacement rating ± standard deviation (Penicillium chrysogenum; 21 days): 0.0 ± 0.0 (9) | Average defacement rating ± standard deviation (Stachybotrys chartarum; +10 μg/mL in Olympic Home paint, 7 days): 0.3 ± 0.6 (3) | Average defacement rating ± standard deviation (Stachybotrys chartarum; +10 μg/mL in Olympic Home paint, 14 days): 0.0 ± 0.0 (3) | Average defacement rating ± standard deviation (Stachybotrys chartarum; +10 μg/mL in Olympic Home paint, 21 days): 0.0 ± 0.0 (3) | Average defacement rating ± standard deviation (Stachybotrys chartarum; [3]): 7.2 ± 2.6 (9) | Average defacement rating ± standard deviation (Stachybotrys chartarum; [4]): 1.3 ± 3.0 (9) | Average defacement rating ± standard deviation (Stachybotrys chartarum; [5]): 1.0 ± 2.8 (9) | MIC [2]: 0.1 µg/mL (≈ 0.658 µM) | MIC (Aureobasidium pullulans): 0.125 µg/mL (≈ 0.823 µM) | MIC (Fusarium oxysparum ST-33): 0.25 µg/mL (≈ 1.65 µM) | MIC (Aspergillus niger): 0.25 µg/mL (≈ 1.65 µM) | MIC (Rhizopus spp.): 0.5 µg/mL (≈ 3.29 µM) | MIC (Aspergillus flavus): 1 µg/mL (≈ 6.58 µM) | MIC (Mucor spp.): 0.25 µg/mL (≈ 1.65 µM)

CCCCNC(=O)OCC#CI [IPBC, 3-Iodo-2-propynylbutylcarbamate]
Average defacement rating ± standard deviation (Alternaria alternata; [3]): 5.9 ± 2.9 (9) | Average defacement rating ± standard deviation (Alternaria alternata; [4]): 3.1 ± 2.4 (9) | Average defacement rating ± standard deviation (Alternaria alternata; [5]): 3.0 ± 2.5 (9) | Average defacement rating ± standard deviation (Penicillium chrysogenum; 7 days): 6.9 ± 3.8 (9) | Average defacement rating ± standard deviation (Penicillium chrysogenum; 14 days): 4.8 ± 4.0 (9) | Average defacement rating ± standard deviation (Penicillium chrysogenum; 21 days): 3.1 ± 3.4 (9) | Average defacement rating ± standard deviation (Stachybotrys chartarum; [3]): 1.2 ± 1.3 (9) | Average defacement rating ± standard deviation (Stachybotrys chartarum; [4]): 0.0 ± 0.0 (9) | Average defacement rating ± standard deviation (Stachybotrys chartarum; [5]): 0.0 ± 0.0 (9) | Solubility in water [1]: 156 mg/L (≈ 555 µM)

CCCCCCCCn1sccc1=O [OIT, 2-Octyl-4-isothiazolin-3-one]
Average defacement rating ± standard deviation (Alternaria alternata; [3]): 0.3 ± 0.5 (6) | Average defacement rating ± standard deviation (Alternaria alternata; [4]): 0.0 ± 0.0 (6) | Average defacement rating ± standard deviation (Alternaria alternata; [5]): 0.0 ± 0.0 (6) | Average defacement rating ± standard deviation (Penicillium chrysogenum; 7 days): 3.6 ± 2.8 (9) | Average defacement rating ± standard deviation (Penicillium chrysogenum; 14 days): 3.0 ± 3.7 (9) | Average defacement rating ± standard deviation (Penicillium chrysogenum; 21 days): 2.3 ± 40.0 (9) | Average defacement rating ± standard deviation (Stachybotrys chartarum; [3]): 4.6 ± 3.2 (9) | Average defacement rating ± standard deviation (Stachybotrys chartarum; [4]): 3.6 ± 3.7 (9) | Average defacement rating ± standard deviation (Stachybotrys chartarum; [5]): 3.0 ± 3.7 (9)

Oc1cc(Cl)ccc1Oc1ccc(Cl)cc1Cl [Triclosan, triclosan]
Average defacement rating ± standard deviation (Alternaria alternata; [3]): 3.6 ± 3.5 (9) | Average defacement rating ± standard deviation (Alternaria alternata; [4]): 2.6 ± 3.7 (9) | Average defacement rating ± standard deviation (Alternaria alternata; [5]): 2.0 ± 2.9 (9) | Average defacement rating ± standard deviation (Penicillium chrysogenum; 7 days): 0.9 ± 2.7 (9) | Average defacement rating ± standard deviation (Penicillium chrysogenum; 14 days): 0.0 ± 0.0 (9) | Average defacement rating ± standard deviation (Penicillium chrysogenum; 21 days): 0.0 ± 0.0 (9) | Average defacement rating ± standard deviation (Stachybotrys chartarum; [3]): 0.7 ± 1.2 (9) | Average defacement rating ± standard deviation (Stachybotrys chartarum; [4]): 0.7 ± 1.2 (9) | Average defacement rating ± standard deviation (Stachybotrys chartarum; [5]): 0.6 ± 1.0 (9) | Solubility in water [1]: 12,000 mg/L
